Laboratory results taken from ChEMBL document CHEMBL4390652, “Design, biological evaluation and X-ray crystallography of nanomolar multifunctional ligands targeting simultaneously acetylcholinesterase and glycogen synthase kinase-3” (Eur J Med Chem, 2019).

Experiments:
PC-3 = assay: Cytotoxicity against human PC3 cells assessed as growth inhibition incubated for 48 hrs by Hoechst 33342 staining based assay; assay type: cell-based; settings: PC-3, 48 h
[1] = system: Tyrosine-protein kinase ABL1 (Homo sapiens), P00519 [F317I]; assay: Binding affinity to human non-phosphorylated ABL1 F317I mutant (S229 to K512 residues) expressed in mammalian expression system assessed as residual binding level at 10 uM by Kinomescan method relative to control
[2] = target: Atypical kinase COQ8B, mitochondrial (Homo sapiens) (UniProt Q96D53); assay: Binding affinity to wild-type human full length ADCK4 (M1 to S544 residues) expressed in bacterial expression system assessed as residual binding level at 10 uM by Kinomescan method relative to control
[3] = target: RAC-gamma serine/threonine-protein kinase (Homo sapiens) (UniProt Q9Y243); assay: Binding affinity to wild-type human partial length AKT3 expressed in bacterial expression system assessed as residual binding level at 10 uM by Kinomescan method relative to control
[4] = target: 5'-AMP-activated protein kinase catalytic subunit alpha-1 (Homo sapiens) (UniProt Q13131); assay: Binding affinity to wild-type human partial length AMPK alpha1 (M1 to E306 residues) expressed in bacterial expression system assessed as residual binding level at 10 uM by Kinomescan method relative to control
[5] = target: Cyclin-dependent kinase 11B (Homo sapiens) (UniProt P21127); assay: Binding affinity to wild-type human partial length CDC2L1 (P353 to G692 residues) expressed in bacterial expression system assessed as residual binding level at 10 uM by Kinomescan method relative to control
[6] = target: Serine/threonine-protein kinase 17B (Homo sapiens) (UniProt O94768); assay: Binding affinity to wild-type human full length DRAK2 (M1 to C372 residues) expressed in bacterial expression system assessed as residual binding level at 10 uM by Kinomescan method relative to control
[7] = system: Epidermal growth factor receptor (Homo sapiens), P00533 [UNDEFINED MUTATION]; assay: Binding affinity to human partial length EGFR L747-T751del/Sins mutant expressed in bacterial expression system assessed as residual binding level at 10 uM by Kinomescan method relative to control
[8] = target: Ephrin type-B receptor 1 (Homo sapiens) (UniProt P54762); assay: Binding affinity to wild-type human partial length EPHB1 (P589 to T911 residues) expressed in bacterial expression system assessed as residual binding level at 10 uM by Kinomescan method relative to control
[9] = target: Tyrosine-protein kinase Fes/Fps (Homo sapiens) (UniProt P07332); assay: Binding affinity to wild-type human partial length FES (I527 to R822 residues) expressed in bacterial expression system assessed as residual binding level at 10 uM by Kinomescan method relative to control
Sequence of Tyrosine-protein kinase Fes/Fps (Homo sapiens) (P07332 whole entry, the tested form may be a part): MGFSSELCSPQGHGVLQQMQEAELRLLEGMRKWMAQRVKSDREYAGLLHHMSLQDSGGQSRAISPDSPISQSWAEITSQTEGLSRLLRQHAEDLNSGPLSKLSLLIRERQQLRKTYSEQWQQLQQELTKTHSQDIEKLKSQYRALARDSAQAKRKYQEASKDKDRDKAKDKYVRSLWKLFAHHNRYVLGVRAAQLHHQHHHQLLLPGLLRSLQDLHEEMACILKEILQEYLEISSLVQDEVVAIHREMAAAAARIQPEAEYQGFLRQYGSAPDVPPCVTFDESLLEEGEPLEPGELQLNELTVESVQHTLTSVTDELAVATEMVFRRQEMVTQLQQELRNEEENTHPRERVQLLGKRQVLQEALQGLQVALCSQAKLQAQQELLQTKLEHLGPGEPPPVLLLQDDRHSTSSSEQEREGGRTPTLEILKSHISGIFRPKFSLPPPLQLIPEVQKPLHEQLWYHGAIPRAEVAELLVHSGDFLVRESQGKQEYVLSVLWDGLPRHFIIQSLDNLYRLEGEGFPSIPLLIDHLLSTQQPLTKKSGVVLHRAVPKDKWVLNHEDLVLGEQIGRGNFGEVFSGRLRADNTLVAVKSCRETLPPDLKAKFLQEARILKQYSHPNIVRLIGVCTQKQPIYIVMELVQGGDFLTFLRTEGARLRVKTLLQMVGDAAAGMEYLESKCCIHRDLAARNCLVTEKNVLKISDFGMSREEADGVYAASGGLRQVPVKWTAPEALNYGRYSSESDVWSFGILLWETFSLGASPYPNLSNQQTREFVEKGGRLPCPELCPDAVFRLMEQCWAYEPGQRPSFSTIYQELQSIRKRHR

[10] = target: Hormonally up-regulated neu tumor-associated kinase (Homo sapiens) (UniProt P57058); assay: Binding affinity to wild-type human partial length HUNK (A31 to K354 residues) expressed in bacterial expression system assessed as residual binding level at 10 uM by Kinomescan method relative to control
[11] = target: Insulin receptor (Homo sapiens) (UniProt P06213); assay: Binding affinity to wild-type human partial length INSR (P997 to E1318 residues) expressed in mammalian expression system assessed as residual binding level at 10 uM by Kinomescan method relative to control
[12] = target: Serine/threonine-protein kinase LATS1 (Homo sapiens) (UniProt O95835); assay: Binding affinity to wild-type human partial length LATS1 (Q678 to V1130 residues) expressed in bacterial expression system assessed as residual binding level at 10 uM by Kinomescan method relative to control
[13] = system: Leucine-rich repeat serine/threonine-protein kinase 2 (Homo sapiens), Q5S007 [G2019S]; assay: Binding affinity to human partial length LRRK2 G2019S mutant (H970 to E2527 residues) expressed in mammalian expression system assessed as residual binding level at 10 uM by Kinomescan method relative to control
[14] = target: Mitogen-activated protein kinase kinase kinase kinase 2 (Homo sapiens) (UniProt Q12851); assay: Binding affinity to wild-type human partial length MAP4K2 (M1 to G318 residues) expressed in mammalian expression system assessed as residual binding level at 10 uM by Kinomescan method relative to control
[15] = target: MAP/microtubule affinity-regulating kinase 3 (Homo sapiens) (UniProt P27448); assay: Binding affinity to wild-type human full length MARK3 (M1 to L729 residues) expressed in bacterial expression system assessed as residual binding level at 10 uM by Kinomescan method relative to control
Sequence of MAP/microtubule affinity-regulating kinase 3 (Homo sapiens) (P27448 whole entry, looked up, the tested form may be a part): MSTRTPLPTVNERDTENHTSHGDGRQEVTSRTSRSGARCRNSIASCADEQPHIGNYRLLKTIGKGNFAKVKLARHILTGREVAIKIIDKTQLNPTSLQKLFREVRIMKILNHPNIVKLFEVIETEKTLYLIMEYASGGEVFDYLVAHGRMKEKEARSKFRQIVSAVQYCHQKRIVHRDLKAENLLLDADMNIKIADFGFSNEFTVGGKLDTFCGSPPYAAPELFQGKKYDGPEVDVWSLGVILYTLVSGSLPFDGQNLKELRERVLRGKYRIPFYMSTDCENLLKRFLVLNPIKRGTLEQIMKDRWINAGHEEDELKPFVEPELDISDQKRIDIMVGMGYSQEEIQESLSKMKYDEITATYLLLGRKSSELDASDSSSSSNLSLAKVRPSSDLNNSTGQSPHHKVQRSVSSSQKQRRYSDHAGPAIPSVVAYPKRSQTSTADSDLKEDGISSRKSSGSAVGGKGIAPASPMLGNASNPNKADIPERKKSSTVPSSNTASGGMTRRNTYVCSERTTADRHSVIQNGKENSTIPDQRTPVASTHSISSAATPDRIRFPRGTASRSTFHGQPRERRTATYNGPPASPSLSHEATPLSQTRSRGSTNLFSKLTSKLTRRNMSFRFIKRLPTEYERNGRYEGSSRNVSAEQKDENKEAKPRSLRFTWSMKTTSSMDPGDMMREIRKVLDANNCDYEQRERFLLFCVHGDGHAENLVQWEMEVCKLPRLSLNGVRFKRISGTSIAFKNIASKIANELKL

[16] = target: Serine/threonine-protein kinase MRCK alpha (Homo sapiens) (UniProt Q5VT25); assay: Binding affinity to wild-type human partial length MRCKA (L57 to V418 residues) expressed in bacterial expression system assessed as residual binding level at 10 uM by Kinomescan method relative to control
[17] = target: Macrophage-stimulating protein receptor (Homo sapiens) (UniProt Q04912); assay: Binding affinity to wild-type human partial length MST1R (I1057 to L1363 residues) expressed in bacterial expression system assessed as residual binding level at 10 uM by Kinomescan method relative to control
Sequence of Macrophage-stimulating protein receptor (Homo sapiens) (Q04912 25-304 limits assumed): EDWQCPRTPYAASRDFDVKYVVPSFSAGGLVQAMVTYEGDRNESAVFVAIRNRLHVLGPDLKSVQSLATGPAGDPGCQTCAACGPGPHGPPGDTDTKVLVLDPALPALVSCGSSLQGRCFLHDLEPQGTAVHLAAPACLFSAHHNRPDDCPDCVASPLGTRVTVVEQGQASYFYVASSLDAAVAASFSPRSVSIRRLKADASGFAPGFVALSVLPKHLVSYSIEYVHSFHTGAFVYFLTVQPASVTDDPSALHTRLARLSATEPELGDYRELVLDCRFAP
Sequence of Macrophage-stimulating protein receptor (Homo sapiens) (Q04912 310-1400 limits assumed): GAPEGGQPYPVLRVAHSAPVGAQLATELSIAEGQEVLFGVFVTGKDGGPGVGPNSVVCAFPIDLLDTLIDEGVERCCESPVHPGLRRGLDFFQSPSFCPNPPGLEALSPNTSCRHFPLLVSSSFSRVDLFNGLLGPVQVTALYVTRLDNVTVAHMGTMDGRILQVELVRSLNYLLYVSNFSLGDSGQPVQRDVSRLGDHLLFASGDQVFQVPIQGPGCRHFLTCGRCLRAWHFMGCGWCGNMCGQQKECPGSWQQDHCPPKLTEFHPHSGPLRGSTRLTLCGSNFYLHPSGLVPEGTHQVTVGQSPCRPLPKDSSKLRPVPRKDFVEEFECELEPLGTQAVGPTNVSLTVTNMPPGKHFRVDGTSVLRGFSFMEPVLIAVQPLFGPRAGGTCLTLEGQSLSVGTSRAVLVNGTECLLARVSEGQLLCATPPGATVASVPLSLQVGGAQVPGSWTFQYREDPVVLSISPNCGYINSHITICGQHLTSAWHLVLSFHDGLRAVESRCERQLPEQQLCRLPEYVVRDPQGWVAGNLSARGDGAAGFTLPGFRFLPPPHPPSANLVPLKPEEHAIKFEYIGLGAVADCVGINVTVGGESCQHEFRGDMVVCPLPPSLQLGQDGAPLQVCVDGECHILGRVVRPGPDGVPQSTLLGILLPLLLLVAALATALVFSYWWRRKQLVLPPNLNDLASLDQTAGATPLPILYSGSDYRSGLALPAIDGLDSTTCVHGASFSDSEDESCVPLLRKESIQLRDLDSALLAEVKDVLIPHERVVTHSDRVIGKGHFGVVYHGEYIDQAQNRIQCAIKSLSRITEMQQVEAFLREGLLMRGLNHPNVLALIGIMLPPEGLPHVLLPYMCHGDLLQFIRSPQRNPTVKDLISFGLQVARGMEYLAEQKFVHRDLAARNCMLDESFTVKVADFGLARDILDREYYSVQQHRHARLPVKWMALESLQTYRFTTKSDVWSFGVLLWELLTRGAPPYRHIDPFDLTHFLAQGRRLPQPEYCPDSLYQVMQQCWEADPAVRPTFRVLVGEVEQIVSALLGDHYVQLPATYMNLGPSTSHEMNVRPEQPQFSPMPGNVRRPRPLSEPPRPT

[18] = target: Serine/threonine-protein kinase NLK (Homo sapiens) (UniProt Q9UBE8); assay: Binding affinity to wild-type human full length NLK (M13 to E527 residues) expressed in bacterial expression system assessed as residual binding level at 10 uM by Kinomescan method relative to control
[19] = target: Platelet-derived growth factor receptor beta (Homo sapiens) (UniProt P09619); assay: Binding affinity to wild-type human partial length PDGFRB (V582 to Y1009 residues) expressed in bacterial expression system assessed as residual binding level at 10 uM by Kinomescan method relative to control
Sequence of Platelet-derived growth factor receptor beta (Homo sapiens) (P09619 whole entry, the tested form may be a part): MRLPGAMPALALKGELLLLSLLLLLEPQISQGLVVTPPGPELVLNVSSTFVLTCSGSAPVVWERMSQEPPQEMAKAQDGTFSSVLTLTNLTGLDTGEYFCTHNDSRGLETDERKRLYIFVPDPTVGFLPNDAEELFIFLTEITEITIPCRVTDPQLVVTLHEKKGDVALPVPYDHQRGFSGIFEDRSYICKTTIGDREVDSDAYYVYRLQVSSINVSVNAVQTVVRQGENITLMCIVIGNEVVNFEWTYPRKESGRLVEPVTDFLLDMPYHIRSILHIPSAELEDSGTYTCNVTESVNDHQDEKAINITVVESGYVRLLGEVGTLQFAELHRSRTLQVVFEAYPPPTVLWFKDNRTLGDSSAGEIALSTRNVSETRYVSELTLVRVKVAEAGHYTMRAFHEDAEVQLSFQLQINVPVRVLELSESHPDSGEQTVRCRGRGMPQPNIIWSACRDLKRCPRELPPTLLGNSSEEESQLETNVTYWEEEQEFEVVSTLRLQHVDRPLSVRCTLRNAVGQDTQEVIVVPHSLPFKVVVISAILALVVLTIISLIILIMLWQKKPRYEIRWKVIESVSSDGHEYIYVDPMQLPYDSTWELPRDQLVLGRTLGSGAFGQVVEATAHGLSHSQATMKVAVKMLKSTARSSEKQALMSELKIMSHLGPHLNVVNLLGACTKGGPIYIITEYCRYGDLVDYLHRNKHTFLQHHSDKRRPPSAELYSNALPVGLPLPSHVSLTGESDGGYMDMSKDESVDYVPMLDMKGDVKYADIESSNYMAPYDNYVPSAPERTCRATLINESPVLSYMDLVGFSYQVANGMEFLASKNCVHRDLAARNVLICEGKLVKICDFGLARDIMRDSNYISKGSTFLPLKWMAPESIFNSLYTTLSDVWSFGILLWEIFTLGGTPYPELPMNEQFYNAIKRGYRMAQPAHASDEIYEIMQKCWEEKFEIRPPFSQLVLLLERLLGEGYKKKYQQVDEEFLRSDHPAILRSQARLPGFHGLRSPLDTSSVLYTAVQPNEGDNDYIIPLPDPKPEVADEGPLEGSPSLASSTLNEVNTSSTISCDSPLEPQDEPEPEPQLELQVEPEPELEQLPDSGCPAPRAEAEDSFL

[20] = target: Serine/threonine-protein kinase N2 (Homo sapiens) (UniProt Q16513); assay: Binding affinity to wild-type human partial length PKN2 (E634 to C984 residues) expressed in bacterial expression system assessed as residual binding level at 10 uM by Kinomescan method relative to control
[21] = target: Receptor-interacting serine/threonine-protein kinase 4 (Homo sapiens) (UniProt P57078); assay: Binding affinity to wild-type human partial length RIPK4 (M1 to V303 residues) expressed in mammalian expression system assessed as residual binding level at 10 uM by Kinomescan method relative to control
[22] = target: Ribosomal protein S6 kinase alpha-2 (Homo sapiens) (UniProt Q15349); assay: Binding affinity to wild-type human partial length C-terminal RSK3 kinase domain 2 (V403 to K700 residues) expressed in bacterial expression system assessed as residual binding level at 10 uM by Kinomescan method relative to control
[23] = target: Serine/threonine-protein kinase TBK1 (Homo sapiens) (UniProt Q9UHD2); assay: Binding affinity to wild-type human full length TBK1 (M1 to L729 residues) expressed in mammalian expression system assessed as residual binding level at 10 uM by Kinomescan method relative to control
Sequence of Serine/threonine-protein kinase TBK1 (Homo sapiens) (Q9UHD2 whole entry, the tested form may be a part): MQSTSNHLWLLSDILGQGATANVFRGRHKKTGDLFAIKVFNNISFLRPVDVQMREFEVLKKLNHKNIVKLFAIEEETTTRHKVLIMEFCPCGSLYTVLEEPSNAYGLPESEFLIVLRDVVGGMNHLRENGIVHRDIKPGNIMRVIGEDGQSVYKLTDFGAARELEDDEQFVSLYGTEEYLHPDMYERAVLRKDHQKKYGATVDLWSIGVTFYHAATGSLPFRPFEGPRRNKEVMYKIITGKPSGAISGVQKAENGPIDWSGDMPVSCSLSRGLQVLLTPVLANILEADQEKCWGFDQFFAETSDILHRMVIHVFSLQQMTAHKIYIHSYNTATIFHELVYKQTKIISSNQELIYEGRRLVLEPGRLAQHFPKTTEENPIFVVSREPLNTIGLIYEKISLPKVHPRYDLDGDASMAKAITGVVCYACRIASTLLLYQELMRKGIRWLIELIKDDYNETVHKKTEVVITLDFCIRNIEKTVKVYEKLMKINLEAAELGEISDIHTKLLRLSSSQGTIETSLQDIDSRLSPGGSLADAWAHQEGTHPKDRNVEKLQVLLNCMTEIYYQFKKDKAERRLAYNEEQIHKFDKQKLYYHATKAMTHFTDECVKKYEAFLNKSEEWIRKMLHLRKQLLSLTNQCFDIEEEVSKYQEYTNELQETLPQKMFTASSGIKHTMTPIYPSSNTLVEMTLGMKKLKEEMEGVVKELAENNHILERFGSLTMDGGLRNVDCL

[24] = target: Serine/threonine-protein kinase ULK3 (Homo sapiens) (UniProt Q6PHR2); assay: Binding affinity to wild-type human partial length ULK3 (M1 to Q290 residues) expressed in mammalian expression system assessed as residual binding level at 10 uM by Kinomescan method relative to control

O=C(Nc1cc(-c2cn(CCNc3c4c(nc5ccccc35)CCCC4)nn2)ccn1)Nc1cccc2c1C1CCCCN1C2=O (racemic) showed an IC50 (PC-3) of 5 µM, an Activity [1] of 100% and an Activity [2] of 77%. For the same compound, the Activity [3] was 100%, the Activity [4] was 31% and the Activity [5] was 99%. For the same compound, the Activity [6] was 1.7%, the Activity [7] was 75% and the Activity [8] was 67%. The Activity [9] was 92%, the Activity [10] was 100% and the Activity [11] was 17%. It also gave an Activity [12] of 90%, an Activity [13] of 24% and an Activity [14] of 9.2%. The Activity [15] was 91%, the Activity [16] was 97% and the Activity [17] was 89%. It also gave an Activity [18] of 70%, an Activity [19] of 2.3% and an Activity [20] of 4.8%. For the same compound, the Activity [21] was 30%, the Activity [22] was 74% and the Activity [23] was 10%. The Activity [24] was 43%.
